Read-outs that look alike come from different tables or passages of the source.
How the values were obtained:
Test in all cases: biochemical
VRK1 = target: T1, VRK1 (Homo sapiens, UniProt Q99986)
T1 sequence (Q99986 1-396): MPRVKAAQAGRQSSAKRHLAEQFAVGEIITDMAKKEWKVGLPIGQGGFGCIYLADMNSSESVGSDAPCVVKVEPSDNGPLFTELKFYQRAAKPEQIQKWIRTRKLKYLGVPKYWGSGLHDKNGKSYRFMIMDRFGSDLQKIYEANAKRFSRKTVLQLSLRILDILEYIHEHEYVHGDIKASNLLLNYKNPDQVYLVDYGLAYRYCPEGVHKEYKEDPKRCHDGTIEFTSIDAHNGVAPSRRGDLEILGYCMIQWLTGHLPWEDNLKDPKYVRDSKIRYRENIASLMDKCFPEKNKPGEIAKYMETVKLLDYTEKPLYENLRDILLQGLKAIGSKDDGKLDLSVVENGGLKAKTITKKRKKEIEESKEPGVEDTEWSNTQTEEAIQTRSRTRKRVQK

MAP3K5 = target: T2, MAP3K5 (Homo sapiens, UniProt Q99683)
T2 sequence (Q99683 1-1374): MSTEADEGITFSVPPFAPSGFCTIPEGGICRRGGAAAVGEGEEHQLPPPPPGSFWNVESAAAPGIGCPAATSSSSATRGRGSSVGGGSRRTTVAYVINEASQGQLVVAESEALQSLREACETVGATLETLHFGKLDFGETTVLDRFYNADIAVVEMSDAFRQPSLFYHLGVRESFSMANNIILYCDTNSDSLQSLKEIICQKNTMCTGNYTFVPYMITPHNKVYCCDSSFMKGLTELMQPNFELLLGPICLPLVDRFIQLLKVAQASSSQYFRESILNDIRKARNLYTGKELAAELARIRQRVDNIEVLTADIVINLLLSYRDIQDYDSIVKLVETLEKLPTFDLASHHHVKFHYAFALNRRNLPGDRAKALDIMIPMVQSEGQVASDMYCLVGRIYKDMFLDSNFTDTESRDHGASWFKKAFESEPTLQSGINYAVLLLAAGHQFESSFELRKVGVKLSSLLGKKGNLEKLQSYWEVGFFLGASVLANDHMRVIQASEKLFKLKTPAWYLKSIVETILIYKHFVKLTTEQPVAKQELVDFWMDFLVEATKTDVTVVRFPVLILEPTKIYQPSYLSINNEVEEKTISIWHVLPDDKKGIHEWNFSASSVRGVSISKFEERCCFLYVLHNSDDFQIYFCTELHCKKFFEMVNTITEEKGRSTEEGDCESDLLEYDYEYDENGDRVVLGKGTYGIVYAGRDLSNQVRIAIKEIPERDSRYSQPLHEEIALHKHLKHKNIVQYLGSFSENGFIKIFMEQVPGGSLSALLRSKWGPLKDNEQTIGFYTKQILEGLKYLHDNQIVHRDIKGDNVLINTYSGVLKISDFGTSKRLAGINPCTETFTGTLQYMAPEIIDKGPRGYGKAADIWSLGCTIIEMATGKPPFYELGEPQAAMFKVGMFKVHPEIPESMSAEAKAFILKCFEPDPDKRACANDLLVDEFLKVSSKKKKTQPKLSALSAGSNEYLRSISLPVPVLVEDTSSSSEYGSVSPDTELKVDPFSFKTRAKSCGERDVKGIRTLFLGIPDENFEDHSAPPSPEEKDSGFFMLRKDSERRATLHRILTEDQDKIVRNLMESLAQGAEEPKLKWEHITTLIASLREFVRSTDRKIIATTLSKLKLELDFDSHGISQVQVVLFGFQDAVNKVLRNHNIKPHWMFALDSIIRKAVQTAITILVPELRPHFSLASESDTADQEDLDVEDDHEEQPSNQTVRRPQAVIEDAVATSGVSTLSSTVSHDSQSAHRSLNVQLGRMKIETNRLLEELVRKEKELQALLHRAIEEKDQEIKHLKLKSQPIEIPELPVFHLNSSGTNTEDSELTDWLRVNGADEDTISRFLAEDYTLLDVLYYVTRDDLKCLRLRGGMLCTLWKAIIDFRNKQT

CASK = target: T3, CASK (Homo sapiens, UniProt O14936)
T3 sequence (O14936 1-926): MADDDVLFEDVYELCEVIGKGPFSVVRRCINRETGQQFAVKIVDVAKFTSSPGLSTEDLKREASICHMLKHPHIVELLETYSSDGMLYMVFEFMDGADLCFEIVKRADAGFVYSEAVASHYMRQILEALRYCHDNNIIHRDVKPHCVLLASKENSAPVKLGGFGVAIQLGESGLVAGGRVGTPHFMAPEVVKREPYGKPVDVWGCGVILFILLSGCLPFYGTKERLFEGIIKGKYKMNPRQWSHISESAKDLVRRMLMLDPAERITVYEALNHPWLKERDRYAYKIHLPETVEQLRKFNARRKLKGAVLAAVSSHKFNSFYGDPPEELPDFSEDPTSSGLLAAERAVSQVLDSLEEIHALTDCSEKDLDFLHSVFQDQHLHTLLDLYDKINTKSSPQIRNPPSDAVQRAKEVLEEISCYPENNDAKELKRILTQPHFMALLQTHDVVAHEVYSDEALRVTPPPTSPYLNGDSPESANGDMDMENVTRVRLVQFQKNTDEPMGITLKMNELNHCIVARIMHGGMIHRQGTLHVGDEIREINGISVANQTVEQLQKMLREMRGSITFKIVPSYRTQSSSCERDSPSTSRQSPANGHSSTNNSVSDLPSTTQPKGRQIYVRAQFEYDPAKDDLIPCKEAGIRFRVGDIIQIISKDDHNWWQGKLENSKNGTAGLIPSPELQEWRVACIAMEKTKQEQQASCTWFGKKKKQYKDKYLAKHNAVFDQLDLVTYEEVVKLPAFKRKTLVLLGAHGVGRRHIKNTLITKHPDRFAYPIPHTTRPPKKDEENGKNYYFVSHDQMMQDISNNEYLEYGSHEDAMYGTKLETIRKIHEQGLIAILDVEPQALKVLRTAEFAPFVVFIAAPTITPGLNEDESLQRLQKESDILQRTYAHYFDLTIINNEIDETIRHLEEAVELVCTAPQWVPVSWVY

MRCKa = MRCKa (Homo sapiens, UniProt Q5VT25)
Chain of MRCKa (Q5VT25 whole entry): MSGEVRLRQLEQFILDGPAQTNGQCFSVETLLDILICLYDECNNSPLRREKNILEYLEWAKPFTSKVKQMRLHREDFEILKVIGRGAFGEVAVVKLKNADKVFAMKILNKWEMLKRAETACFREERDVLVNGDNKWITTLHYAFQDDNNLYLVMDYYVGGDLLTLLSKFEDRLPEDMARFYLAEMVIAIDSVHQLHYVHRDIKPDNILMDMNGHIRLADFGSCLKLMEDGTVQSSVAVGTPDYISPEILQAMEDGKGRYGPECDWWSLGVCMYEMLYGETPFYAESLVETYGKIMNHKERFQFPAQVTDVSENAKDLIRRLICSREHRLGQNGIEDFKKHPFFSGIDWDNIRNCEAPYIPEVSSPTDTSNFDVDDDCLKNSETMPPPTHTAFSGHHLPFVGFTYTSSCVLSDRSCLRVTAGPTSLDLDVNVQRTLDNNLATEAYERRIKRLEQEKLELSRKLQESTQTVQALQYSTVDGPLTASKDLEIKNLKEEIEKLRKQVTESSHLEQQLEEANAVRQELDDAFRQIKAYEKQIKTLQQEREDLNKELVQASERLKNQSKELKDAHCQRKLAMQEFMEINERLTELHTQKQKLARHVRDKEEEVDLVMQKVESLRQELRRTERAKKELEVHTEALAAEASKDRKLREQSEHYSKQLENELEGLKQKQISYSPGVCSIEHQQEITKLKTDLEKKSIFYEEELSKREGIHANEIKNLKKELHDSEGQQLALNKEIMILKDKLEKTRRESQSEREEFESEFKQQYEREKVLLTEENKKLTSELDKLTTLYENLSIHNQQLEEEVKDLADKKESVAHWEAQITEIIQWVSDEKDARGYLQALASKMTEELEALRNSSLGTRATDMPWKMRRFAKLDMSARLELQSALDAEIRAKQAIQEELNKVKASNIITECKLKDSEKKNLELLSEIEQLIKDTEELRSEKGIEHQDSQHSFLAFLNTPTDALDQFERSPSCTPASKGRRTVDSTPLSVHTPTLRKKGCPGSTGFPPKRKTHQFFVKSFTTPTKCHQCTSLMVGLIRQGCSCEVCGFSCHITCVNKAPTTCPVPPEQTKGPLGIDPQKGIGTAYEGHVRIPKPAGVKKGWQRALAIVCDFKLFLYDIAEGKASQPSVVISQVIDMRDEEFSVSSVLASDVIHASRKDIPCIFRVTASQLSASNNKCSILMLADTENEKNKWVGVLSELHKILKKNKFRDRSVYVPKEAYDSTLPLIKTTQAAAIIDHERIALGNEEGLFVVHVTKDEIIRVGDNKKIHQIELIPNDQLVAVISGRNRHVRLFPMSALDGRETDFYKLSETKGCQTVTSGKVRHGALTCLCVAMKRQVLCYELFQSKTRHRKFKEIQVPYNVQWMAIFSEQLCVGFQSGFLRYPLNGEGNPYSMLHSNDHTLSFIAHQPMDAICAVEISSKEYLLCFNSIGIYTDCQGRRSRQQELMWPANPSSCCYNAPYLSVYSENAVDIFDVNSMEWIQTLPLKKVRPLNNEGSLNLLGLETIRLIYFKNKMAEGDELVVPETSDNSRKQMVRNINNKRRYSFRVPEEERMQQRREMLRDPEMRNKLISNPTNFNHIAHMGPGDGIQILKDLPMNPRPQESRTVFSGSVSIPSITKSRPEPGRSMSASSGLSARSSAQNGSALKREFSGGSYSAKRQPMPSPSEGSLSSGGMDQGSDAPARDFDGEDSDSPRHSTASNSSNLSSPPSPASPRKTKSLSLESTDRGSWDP

MELK = MELK (Homo sapiens, UniProt Q14680)
Chain of MELK (Q14680 whole entry): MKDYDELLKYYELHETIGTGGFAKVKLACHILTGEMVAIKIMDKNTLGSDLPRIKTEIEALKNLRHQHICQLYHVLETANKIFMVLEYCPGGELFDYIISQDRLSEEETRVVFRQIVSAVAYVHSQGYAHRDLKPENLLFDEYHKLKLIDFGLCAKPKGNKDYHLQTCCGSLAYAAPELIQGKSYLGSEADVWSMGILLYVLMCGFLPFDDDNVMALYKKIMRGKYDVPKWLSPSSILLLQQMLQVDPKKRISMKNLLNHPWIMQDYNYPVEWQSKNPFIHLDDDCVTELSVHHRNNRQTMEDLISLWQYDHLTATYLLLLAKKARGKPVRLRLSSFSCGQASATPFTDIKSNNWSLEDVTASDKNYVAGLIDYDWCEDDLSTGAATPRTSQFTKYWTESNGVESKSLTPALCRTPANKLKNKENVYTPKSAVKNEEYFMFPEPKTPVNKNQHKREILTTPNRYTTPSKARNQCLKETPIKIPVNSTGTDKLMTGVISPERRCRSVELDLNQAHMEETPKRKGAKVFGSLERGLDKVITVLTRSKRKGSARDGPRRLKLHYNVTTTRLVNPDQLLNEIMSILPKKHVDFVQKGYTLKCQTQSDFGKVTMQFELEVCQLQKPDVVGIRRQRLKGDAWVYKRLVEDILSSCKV

With `CNc1ncc2cc(-c3cc(Br)ccc3Cl)c(=O)n(CCCCN)c2n1` [compound 6, 8-(4-Aminobutyl)-6-(5-bromo-2-chlorophenyl)-2-(methylamino)pyrido[2,3-d]pyrimidin-7(8H)-one] the ΔTm at 10 µM (VRK1; read-out: dTm 6) was 0.3 °C, the ΔTm at 10 µM (MAP3K5; read-out: dTm 6) was 0.9 °C and the ΔTm at 10 µM (CASK; read-out: dTm 6) was -0.3 °C. For the same compound, the ΔTm at 10 µM (MRCKa; read-out: dTm 6) was 0.5 °C.
`CNc1ncc2cc(-c3cc(F)ccc3F)c(=O)n(CCCCN)c2n1` [compound 5, 8-(4-Aminobutyl)-6-(2,5-difluorophenyl)-2-(methylamino)pyrido[2,3-d]pyrimidin-7(8H)-one] showed a ΔTm at 10 µM (VRK1; read-out: dTm MR22 (5)) of 0.4 °C, a ΔTm at 10 µM (MAP3K5; read-out: dTm MR22 (5)) of 1 °C and a ΔTm at 10 µM (CASK; read-out: dTm MR22 (5)) of -0.4 °C. It also gave a ΔTm at 10 µM (MELK; read-out: dTm MR22 (5)) of 3.2 °C and a ΔTm at 10 µM (MRCKa; read-out: dTm MR22 (5)) of -0.5 °C.
`CNc1ncc2cc(-c3ccc(-c4cccc(C)n4)cc3Cl)c(=O)n(CC3OCC(N)CO3)c2n1` (stereo not drawn) [compound 2, G-5555] was tested, and the “dTm G-5555 (2)” value (VRK1; 10 µM, binder) was -0.1 °C, the “dTm G-5555 (2)” value (MAP3K5; 10 µM, binder) was 8.9 °C and the “dTm G-5555 (2)” value (CASK; 10 µM, binder) was -0.8 °C. The “dTm G-5555 (2)” value (MELK; 10 µM, binder) was 8.4 °C and the “dTm G-5555 (2)” value (MRCKa; 10 µM, binder) was 0.9 °C.
Compound `CNc1ncc2cc(-c3ccccc3Cl)c(=O)n(CCCCN)c2n1` [compound 4, 8-(4-Aminobutyl)-6-(2-chlorophenyl)-2-(methylamino)pyrido[2,3-d]pyrimidin-7(8H)-one] has a ΔTm at 10 µM (VRK1; read-out: dTm MR21 (4)) of -0.4 °C, a ΔTm at 10 µM (MAP3K5; read-out: dTm MR21 (4)) of 2.9 °C and a ΔTm at 10 µM (CASK; read-out: dTm MR21 (4)) of 0 °C. For the same compound, the ΔTm at 10 µM (MELK; read-out: dTm MR21 (4)) was 5.7 °C and the ΔTm at 10 µM (MRCKa; read-out: dTm MR21 (4)) was 0.2 °C.
Compound `CNc1ncc2cc(-c3cc(Br)ccc3Cl)c(=O)n(C[C@H]3OC[C@H](N)CO3)c2n1` [compound 7, 8-(((2r,5r)-5-Amino-1,3-dioxan-2-yl)methyl)-6-(5-bromo-2-chlorophenyl)-2-(methylamino)pyrido[2,3-d]pyrimidin-7(8H)-one] has a ΔTm at 10 µM (VRK1; read-out: dTm 7) of 0.5 °C, a ΔTm at 10 µM (MAP3K5; read-out: dTm 7) of 0.8 °C and a ΔTm at 10 µM (CASK; read-out: dTm 7) of -0.1 °C. For the same compound, the ΔTm at 10 µM (MELK; read-out: dTm 7) was 3.6 °C and the ΔTm at 10 µM (MRCKa; read-out: dTm 7) was 0.1 °C.

— article doi:10.1101/2023.03.24.534094v2 (biorxiv, 2023)
